This note sets out measurements from article PMC7422936 (European journal of medicinal chemistry, 2020).

The term IC50 denotes the point on the concentration scale where inhibition reaches its midpoint. The low end stands for inhibition by little substance, the high end for a need for much substance.

Where “and” joins values, the source holds several entries; their conditions need not be identical. Equal entries are not always repeated. Where two headings read alike, the source gives them in different places.

The target in assay [1] is CXCR4 (Homo sapiens, UniProt P61073). Briefly: In vitro binding assay.
Assay [2] relates to carrageenan-induced paw edema. Description: Carrageenan-induced mouse paw edema model. It counts as in vivo. For orientation: Carrageenan injected into the paw causes an acute inflammation.

CXCR4, sequence (P61073 whole entry): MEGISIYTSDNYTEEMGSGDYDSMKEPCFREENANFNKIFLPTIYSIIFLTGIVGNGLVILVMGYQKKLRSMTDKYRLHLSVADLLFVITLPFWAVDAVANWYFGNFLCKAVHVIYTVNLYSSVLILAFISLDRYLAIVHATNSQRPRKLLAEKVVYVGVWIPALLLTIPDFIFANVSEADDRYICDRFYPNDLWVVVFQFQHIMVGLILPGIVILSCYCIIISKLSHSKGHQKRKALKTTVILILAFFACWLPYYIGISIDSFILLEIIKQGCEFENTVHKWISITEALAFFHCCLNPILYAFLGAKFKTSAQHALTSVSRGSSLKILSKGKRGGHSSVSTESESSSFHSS

On to `NC(C(=O)NC1CCN(C(=O)CCn2ccc3ccncc32)CC1)c1ccccc1` (centres unmarked) [ZINC72372983], for which the EC50 in assay [1] (read-out: Binding Affinity (EC), EC = concentration at which the compound blocks > 50% of rhodamine Red X-TN14003, MDA-MB-231 cells, tested at 1, 10, 100, 1000 nM) was found to be 100 nM.

For the molecule `N=C(N)NCCC[C@H](N)C(=O)NC1CCN(C(=O)CCn2ccc3ccncc32)CC1` [Z7R], in assay [1], the EC50 came out at 1 nM and the IC50 came to 1.25 nM. The “Reduction of edema (paw) weight” value in assay [2] (10 mg/kg i.p. once daily, 74 h after carrageenan, n = 5, versus untreated mice) was 50% and ~ 50%. Besides, the “Histology / immunohistochemistry of paw tissue” value in assay [2] (10 mg/kg i.p., H&E and anti-CXCR4 staining) is “observable decrease in the number of inflammatory cells”.
